# Reference: US20260240828A1, “GLYCOSPHINGOLIPID BIOSYNTHESIS INHIBITORS FOR TREATMENT OF TUMOURS DEPENDENT ON THE ONCOGENE GOLPH3 AND ON ONCOGENES OF THE GOLPH3 CLUSTER” (Golgenia S.R.L., priority 2023, published 2026)
# How the values were obtained:
# Assay type in all cases: cell-based
# [1] = test system: LnCap; assay: Chemoresistance: growth under adhesion with etoposide, p21 cell cycle arrest, LnCap; conditions: FIG. 2B
# Method: (§1) Eliglustat alone has no effect.
# (§2) The cells were treated with etoposide at a concentration ranging between 10 and 40 μM for 12-16 hours.
# (§3) The p21 levels were determined by immunoblotting as cycle arrest index.
# [2] = test system: DU145; assay: Chemoresistance: growth under adhesion with etoposide, p21 cell cycle arrest, DU145; conditions: FIG. 2B
# Method: as §1, §2, §3
# [3] = test system: GSL synthesis; assay: Glycosphingolipid metabolism (radiolabelling of cell sphingosine, TLC); conditions: at 50 micromolar miglustat
# From the text: To analyse the glycosphingolipid metabolites we used a method based on radiolabelling of cell sphingosine followed by extraction of metabolites and separation by thin-layer chromatography (TLC) as previously described in Rizzo et al., EMOJ, 2021.
# [4] = test system: lines expressing an oncogene belonging to the GOLPH3 cluster; assay: Growth under adhesion to the matrix and absence of stress; conditions: lines expressing a GOLPH3 cluster oncogene; FIG. 2A1 bottom series
# Method: (§4) The growth of tumour lines was evaluated under different experimental conditions. 12 tumour lines, divided into six pairs derived from six different types of tumour, were used. […] The growth of the lines was observed under 3 experimental conditions: 1) absence of anchorage to the matrix; 2) exposure to chemotherapy agents; 3) undisturbed growth under adhesion to the matrix.
# (§5) Growth under conditions of adhesion to the matrix and absence of stress (bottom series, black) of the lines expressing an oncogene belonging to the GOLPH3 cluster is not inhibited by miglustat. Inhibition of GSL synthesis was about 70% (at 50 micromolar miglustat).
# (§6) GCS enzyme inhibitors such as miglustat, eliglustat and N-[(1R,2R)-2-(2,3-dihydro-1,4-benzodioxin-6-yl)-2-hydroxy-1-(1-pyrrolidinylmethyl)ethyl]-nonanamide (Genz-123346), or P-gp inhibitors such as zosuquidar, were used at two or three different concentrations, depending on the type of dose, to blockade glycosphingolipid biosynthesis in various tumour cells. For the growth assays, new media supplemented with the medicaments were added every three days.
# (§7) • 1. Growth in the absence of anchorage (anchorage-independent) • 2. Growth of isolated cell clones (clonogenic analysis) • 3. Growth under adhesion (under adhesion).
# (§8) Both the anchorage-independent and clonogenic growth tests were conducted as described previously in Rizzo et al., EMBOJ, 2021. […]
# [5] = test system: tumour lines deriving from the same tumour type which do not express GOLPH3; assay: Growth under anchorage-independent conditions, lines not expressing GOLPH3; conditions: 0 to 50 micromolar; lines of same tumour type not expressing GOLPH3; FIG. 2A1 middle series
# Method: as §4, §5, §6, §7, §8
# [6] = test system: prostate, colon and liver tumour lines expressing an oncogene belonging to the GOLPH3 cluster; assay: Growth under anchorage-independent conditions, lines expressing a GOLPH3 cluster oncogene; conditions: concentrations 0 to 50 micromolar, FIG. 2A1 top series
# Method: as §4, §5, §6, §7, §8
smiles,measurement,setting,value
CCCCCCCC(=O)N[C@H](CN1CCCC1)[C@H](O)c1ccc2c(c1)OCCO2 [eliglustat],effect of co-treatment on etoposide-induced cell cycle arrest,[1]; co-treatment with etoposide,does not modify said situation
same,effect of co-treatment on resistance to etoposide,"[2]; DU145, co-treatment with etoposide",loses said resistance
same,effect of inhibitor alone,[2]; without etoposide,no effect
COc1cc([C@@H]2c3cc4c(cc3[C@@H](O[C@@H]3O[C@@H]5CO[C@@H](C)O[C@H]5[C@H](O)[C@H]3O)[C@H]3COC(=O)[C@H]23)OCO4)cc(OC)c1O [etoposide],"cell cycle arrest (p21 synthesis), etoposide alone",[1]; not expressing a GOLPH3 cluster oncogene,cell cycle arrest (strong increase in p21 synthesis)
same,response to etoposide alone (chemoresistance),"[2]; DU145, expressing a GOLPH3 cluster oncogene",resistant
CCCCN1C[C@H](O)[C@@H](O)[C@H](O)[C@H]1CO [miglustat],inhibition at 50 µM,[3],~70%
same,growth under conditions of adhesion to the matrix and absence of stress,[4],not inhibited
same,growth under anchorage-independent conditions,[5],not inhibited
same,growth under anchorage-independent conditions,[6],inhibited
